Source: patent US20210318318A1, “Kinase Activity In Tumors” (Institute For Cancer Research d/b/a The Research Institute …, priority 2018, published 2021)

Experiments:
Format in all cases: cell-based, human
[1] = test system: SNU-119; assay: Short-term growth assay (CellTiter-Glo cell viability), kinase inhibitors
Description: (§1) Cell viability was determined by Cell Titer Glo analysis.
(§2) To explore the therapeutic potential of the HGSOC kinome signature, a detailed molecular analysis of protein levels/activity, growth and survival functions was carried out in a panel of recently validated HGSOC cell lines (Coscia et al., Nat. Commun., 2016, 7, 12645) that harbor commonly encountered HGSOC mutations and genetic rearrangements (see, FIG. 5A).
(§3) For short-term growth assays, 3000-5000 cells were plated per well in 96-well plates and allowed to adhere and equilibrate overnight. Drug was added the following morning and after 120 hours of drug treatment, cell viability was assessed using the CellTiter-Glo Luminescent cell viability assay according to manufacturer (Promega). Students t tests were performed for statistical analyses and p values ≤0.05 were considered significant. For colony formation assays, cells were plated in 24-well dishes (3000-5000 cells per well) and incubated overnight before continuous drug treatment for 14 days, with drug and media replaced twice weekly. At the end of treatment, cells were rinsed with PBS and fixed with chilled methanol for 10 minutes at −20° C. Methanol was removed by aspiration, and cells were stained with 0.5% crystal violet in 20% methanol for 20 minutes at room temperature, washed with distilled water, and scanned.

[2] = test system: OVCAR4; assay: as above
Description: as §1, §2, §3

[3] = test system: OVSAHO; assay: as above
Description: as §1, §2, §3

[4] = test system: Kuramochi; assay: as above
Description: as §1, §2, §3

[5] = test system: COV362; assay: as above
Description: as §1
COV362 cells were treated with increasing concentrations of A-674563 and cell viability assessed by Cell Titer Glo according to manufacturer's instructions. Data represent the mean of six replicates.
as §2, §3

[6] = test system: OVCAR4 cells; assay: Drug growth inhibition in cells depleted of dark kinases by siRNA (Cell Titer Glo); conditions: increasing doses of drug
Description: OVCAR4 cells were transfected with control nontargeting or dark kinase siRNAs and treated with escalating doses of appropriate drugs.
To explore if blocking dark kinases AAK1, STK38 or MRCKA activity in combination with current therapies improves drug efficacy, OVCAR4 cells depleted of AAK1, STK38 or MRCKA were treated with increasing doses of carboplatin, olaparib, JQ1, or a variety of kinase inhibitors in clinical trials for HGSOC.
siRNA transfections were performed using 25 nM siRNA duplex and the reverse transfection protocol. 3000-5000 cells per well were added to 96 well plates with media containing the siRNA and transfection reagent (Lipofectamine RNAiMax) according to the manufacturer's instructions. In experiments where inhibitors were used, the inhibitor was added at the time of transfection. Cells were allowed to grow for 72-120 hours post-transfection prior to CellTiter Glo (Promega) analysis. Two-to-three independent experiments were performed with each cell line and siRNA. Students t tests were performed for statistical analyses and p values ≤0.05 were considered significant. For western blot studies, the same procedure was performed with volumes and cell numbers proportionally scaled to a 60 mm or 10 cm dish, and cells were collected 24-72 hours post-transfection. siRNA product numbers and manufacturers are listed in Table 5.

Compound	Kinase inhibition profile of HGSOC cells (growth inhibition, Cell Titer Glo) ([1]; drug 0.312 uM)	Kinase inhibition profile of HGSOC cells (growth inhibition, Cell Titer Glo) ([2]; drug 0.312 uM)	Kinase inhibition profile of HGSOC cells (growth inhibition, Cell Titer Glo) ([3]; drug 0.312 uM)	Kinase inhibition profile of HGSOC cells (growth inhibition, Cell Titer Glo) ([4]; drug 0.312 uM)	Kinase inhibition profile of HGSOC cells (growth inhibition, Cell Titer Glo) ([5]; drug 0.312 uM)	Kinase inhibition profile of HGSOC cells (growth inhibition, Cell Titer Glo) ([1]; drug 0.625 uM)	Kinase inhibition profile of HGSOC cells (growth inhibition, Cell Titer Glo) ([2]; drug 0.625 uM)	Kinase inhibition profile of HGSOC cells (growth inhibition, Cell Titer Glo) ([3]; drug 0.625 uM)	Kinase inhibition profile of HGSOC cells (growth inhibition, Cell Titer Glo) ([4]; drug 0.625 uM)	Kinase inhibition profile of HGSOC cells (growth inhibition, Cell Titer Glo) ([5]; drug 0.625 uM)	further results
C=CCn1c(=O)c2cnc(Nc3ccc(N4CCN(C)CC4)cc3)nc2n1-c1cccc(C(C)(C)O)n1 [MK-1775]	0.4312	0.6747	0.5935	1.111	0.03494						growth inhibition by drug with MRCKA knockdown relative to non-targeting control siRNA [6]: enhanced growth inhibition
CC(=O)c1c(C)c2cnc(Nc3ccc(N4CCNCC4)cn3)nc2n(C2CCCC2)c1=O [Palbociclib]											Kinase inhibition profile of HGSOC cells (growth inhibition, Cell Titer Glo) ([1]; drug 5 uM): 0.5867; Kinase inhibition profile of HGSOC cells (growth inhibition, Cell Titer Glo) ([2]; drug 5 uM): 0.7952; Kinase inhibition profile of HGSOC cells (growth inhibition, Cell Titer Glo) ([3]; drug 5 uM): 0.6956; Kinase inhibition profile of HGSOC cells (growth inhibition, Cell Titer Glo) ([4]; drug 5 uM): 0.09321; Kinase inhibition profile of HGSOC cells (growth inhibition, Cell Titer Glo) ([5]; drug 5 uM): 0.92
Cc1cnc(Nc2ccc(F)cc2Cl)nc1-c1c[nH]c(C(=O)N[C@H](CO)c2cccc(Cl)c2)c1 [Vx-11e]						0.3359	0.9623	0.5488	0.3596	1.014	
CNCc1ccc(-c2cc(-c3nc(-c4ccc(S(=O)(=O)C(C)C)cc4)cnc3N)on2)cc1 [VX-90]						0.51	0.2646	0.5885	0.6083	0.3346	
NC(=O)Nc1cc(-c2cccc(F)c2)sc1C(=O)N[C@H]1CCCNC1 [AZD7762]	0	0	0.7988	0.663	0.05872						growth inhibition by drug with MRCKA knockdown relative to non-targeting control siRNA [6]: enhanced growth inhibition
NC1(c2ccc(-c3nc4ccn5c(=O)[nH]nc5c4cc3-c3ccccc3)cc2)CCC1 [MK2206]						0.9728	0.9771	0.6233	0.4701	0.8254	
COc1cc(Nc2ncc3c(n2)-c2ccc(Cl)cc2C(c2c(F)cccc2OC)=NC3)ccc1C(=O)O [Alisertib]	1.057	0.1016	0.5387	0.5199	1.075						
AZD4547											Kinase inhibition profile of HGSOC cells (growth inhibition, Cell Titer Glo) ([1]; drug 5 uM): 0.738; Kinase inhibition profile of HGSOC cells (growth inhibition, Cell Titer Glo) ([2]; drug 5 uM): 0.5989; Kinase inhibition profile of HGSOC cells (growth inhibition, Cell Titer Glo) ([3]; drug 5 uM): 0.4351; Kinase inhibition profile of HGSOC cells (growth inhibition, Cell Titer Glo) ([4]; drug 5 uM): 0.7095; Kinase inhibition profile of HGSOC cells (growth inhibition, Cell Titer Glo) ([5]; drug 5 uM): 0.5474
